What was measured:
Type in all cases: physicochemical
[1] = Tabletting property (cracking or chipping of pressed tablets); conditions: powder with particle size 53 to 106 μm, 0.4 g, one ton load for 30 sec, 10 tablets observed for cracking or chipping
From the text: The tabletting property of a particulate composition containing hydrous crystalline ascorbic acid 2-glucoside of the present invention was investigated by the following method and compared with that of a conventional particulate composition containing anhydrous crystalline ascorbic acid 2-glucoside.
A hydrous crystalline ascorbic acid 2-glucoside powder with an ascorbic acid 2-glucoside purity of 99.2% by weight, obtained by the method in Experiment 3, was sieved to collect a powder with a particle size ranging from 53 to 106 μm. The powder thus obtained was placed in a metallic mold for tabletting (11 mm diameter and 30 mm thickness) in an amount of 0.4 g, and tabletted by loading on the powder one ton for 30 sec using “SSP-10A”, a portable press machine, commercialized by Shimadzu Corp., Kyoto, Japan, followed by taking out the resulting tablets by releasing the load. The procedure was repeated 10 times to prepare 10 tablets in total. As a control, “AA2G”, a trade mark of a commercialized particulate composition containing anhydrous crystalline ascorbic acid 2-glucoside with a purity of at least 98%, commercialized by Hayashibara Biochemical Laboratories, Inc., Okayama, Japan, was used to prepare a powder with a particle size ranging from 53 to 106 μm, which was then prepared into 10 tablets by the same method as above. […]

[2] = Oil-holding capacity with corn oil; conditions: for Oil-holding capacity: five grams of corn oil, particle size 53 to 106 μm, powder added until end point
Description: Using a particulate composition containing hydrous crystalline ascorbic acid 2-glucoside obtained by the method in Experiment 3-2, the oil-holding capacity of the particulate composition was determined. As a control, “AA2G”, a product name of a commercialized particulate composition containing anhydrous crystalline ascorbic acid 2-glucoside with a purity of at least 98% by weight, commercialized by Hayashibara Biochemical Laboratories, Inc., Okayama, Japan, was used.
The measurements for oil-holding capacity of the particulate compositions were conducted as follows in accordance with the method disclosed in Japanese Patent Kokai No. 31650/84. Five grams of a corn oil (a reagent grade specimen, Lot No.: WKL1215, commercialized by Wako Pure Chemical Industries, Osaka, Japan, was placed in a 50-ml plastic container, to which was gradually added while stirring the particulate composition containing hydrous crystalline ascorbic acid 2-glucoside or the particulate composition containing anhydrous crystalline ascorbic acid 2-glucoside, both of which had been adjusted to give a particle size of 53 to 106 μm similarly as in Experiment 6. Although the resulting mixture retains a free-flowing ability while the additive amount of any of the particulate compositions is relatively low, but it increases its viscosity as the increase of the additive amount and becomes a clump in due course. As the additive amount further increases, the clump increases its hardness and finally it could not keep together and begins to be unstiffen. The moment was regarded as the end point and the oil-holding capacity was determined by the following equation based on the amount of each crystalline particulate composition that had been added until the end point.

[3] = Tablet hardness measured on a rheometer; conditions: tablet of Experiment 6, RHEOMETER CR-500DX
From the text: During the preparation of tablets, the particulate composition was frequently observed, as a causative of cracking, to be adhered to a cylinder (punch) of the portable press machine at the stage of releasing the load and it induced cracking at the stage of taking out from the metallic mold of the press machine.

[4] = listed as particulate composition containing anhydrous crystalline ascorbic acid 2-glucosi
[5] = listed as particulate composition containing hydrous crystalline ascorbic acid 2-glucoside

Oil-holding capacity [2]	Oil-holding capacity [2, 4]	degree of hardness of tablet [3]	Oil-holding capacity [2, 5]	Oil-holding capacity relative to the anhydrous crystalline control ([2]; hydrous versus anhydrous particulate composition)	SMILES	Tablet form [1, 4]	Tablet form [1, 5]
25.2	25.2				O=C1O[C@H]([C@@H](O)CO)C(O)=C1O[C@H]1O[C@H](CO)[C@@H](O)[C@H](O)[C@H]1O [Particulate composition containing anhydrous crystalline asc] [2-O-α-D-glucosyl-L-ascorbic acid]	cracking or chipping was observed in 9 out of 10 tablets	
38.3		about 90 N	38.3	about 1.5 folds	O=C1O[C@H]([C@@H](O)CO)C(O)=C1O[C@H]1O[C@H](CO)[C@@H](O)[C@H](O)[C@H]1O [Particulate composition containing hydrous crystalline ascor] [2-O-α-D-glucosyl-L-ascorbic acid]		neither cracking nor chipping was observed in all the 10 tablets
